Assay results reported in patent publication US20250283178A1, “FOXC1 EXPRESSION AS A COMPLEMENTARY DIAGNOSTIC ASSAY FOR PREDICTING EFFICACY OF ONCOLOGY DRUGS AND DRUG COMBINATION REGIMENS AND METHODS FOR USE” (3N DIAGNOSTICS LTD., priority 2022, published 2025).

How the values were obtained:
[1] = system: HER2 negative ER+ breast cancer patients; assay: I-SPY2 neoadjuvant Durvalumab arm, pathologic complete response by MK167+FOXC1 predictor; type: in vivo, human; conditions: FIG. 16
Description: (§1) Methods. 41 Pre-NACT tumor biopsy MK167 and FOXC1 mRNA expression values were retrospectively obtained from TNBC patients and HER2 negative ER+ breast cancer patients who had been enrolled and treated in the I-SPY2 clinical trial (Durvalumab arm: 21, Control arm: 20) and correlated with the rate of observed pathologic complete response (pCR). The area under the curve (AUC) of each model was calculated and used to determine suitable cutoff values to maximize Negative Predictive Value (NPV) and Sensitivity for pCR prediction.

[2] = system: TNBC patients; assay: as above; type: in vivo, human; conditions: Durvalumab Arm: Olaparib+Paclitaxel+Durvalumab
Description: as §1
Methods. 41 Pre-NACT tumor biopsy MK167 and FOXC1 mRNA expression values were retrospectively obtained from TNBC patients who had been enrolled and treated in the I-SPY2 clinical trial (Durvalumab arm: 21, Control arm: 20) and correlated with the rate of observed pathologic complete response (pCR). The area under the curve (AUC) of each model was calculated and used to determine suitable cutoff values to maximize Negative Predictive Value (NPV) and Sensitivity for pCR prediction.

[3] = system: TGFβ1; conditions: through a GLI2 inhibitory mechanism; Didiasova et al., 2017; cited from earlier work
[4] = system: cancer-associated fibroblasts; conditions: Aboulkheyr Es et al., 2020; cited from earlier work
[5] = system: lung, liver and colon cancer; conditions: combination; Qin et al., 2020; cited from earlier work
[6] = system: fibroblast activation and tumor-fibroblast crosstalk; conditions: Fujiwara et al., 2020; cited from earlier work
[7] = system: TNBC; conditions: two separate Phase II trials (Jovanovic et al., 2017; Park et al., 2018); cited from earlier work
[8] = system: ER+ breast cancer; conditions: Kornblum et al., 2018; cited from earlier work
[9] = system: in vitro FOXC1+ cancer model; conditions: concurrent treatment with Wnt signaling inhibition; Ray et al., 2015b; cited from earlier work
[10] = system: leukemia stem cells; conditions: Fukushima et al., 2016; cited from earlier work
[11] = system: GLI2; conditions: abrogates leukemia stem cell dormancy; Sadarangani et al., 2015; cited from earlier work
[12] = system: TNBC; conditions: Raninga et al., 2020; cited from earlier work
[13] = system: gastric cancer; conditions: Wang et al., 2016b; cited from earlier work
[14] = system: breast CSC count in preoperative tumors; conditions: Goldstein et al., 2020; cited from earlier work
[15] = system: HER2-positive breast cancer; conditions: Singh et al., 2013, cited from earlier work
[16] = system: breast cancer; conditions: Ginestier et al., 2010; cited from earlier work
[17] = system: TNBC cells; conditions: cited from earlier work
[18] = system: binding of SOX9 to FOXC1; conditions: Tang et al., 2020; cited from earlier work
[19] = system: ER and or PR-positive cells; conditions: Wang et al., 2015; cited from earlier work
[20] = system: ER+LN-breast cancer patients; assay: Adjuvant chemotherapy added to adjuvant Tamoxifen, all-cause mortality (SCAN-B dataset); type: in vivo, human; conditions: FOXC1 greater than 60th percentile or VERESCA FOXC1 IHC Score of 2; adjuvant Tamoxifen X 5 years with or without adjuvant chemotherapy
Description: The prognostic utility of the VERESCA® FOXC1 IHC assay and the VERESCA® FOXC1Clin Criteria recurrence risk score was additionally validated in a second independent clinical trial dataset (SCAN-B) comprising 3207 breast cancer patients for whom clinical, treatment, gene expression data and outcomes data (Overall Survival) were available.
FOXC1 expression cutoff value was 60th percentile of expression of FOXC1 mRNA on qRTPCR, 60th percentile of expression of FOXC1 mRNA on RNA-Seq, or FOXC1 Score of 2 using VERESCA® FOXC1 IHC kit. FOXC1 expression less than the 60th percentile (FOXC1<60TH % ILE) by mRNA EXPRESSION or <VERESCA® FOXC1 IHC Score of 2 predicts LOW RISK and efficacy of the current standard of care which is adjuvant Tamoxifen X 5 years) in successfully reducing disease recurrence risk, and its resultant impact on all-cause mortality, without the need for additional/adjuvant chemotherapy.
The ability of the VERESCA® FOXC1Clin criteria recurrence risk score to predict a statistically significant decrease in all-cause mortality rate in the 8-year period post-diagnosis in response to having received adjuvant chemotherapy in addition to adjuvant Tamoxifen therapy was validated in SCAN-B clinical trial dataset (Odds Ratio 6.477 [Cl 2.974-14.107], p=0.0000001).

[21] = system: prostate cancer; conditions: Gravina et al., 2015; cited from earlier work
[22] = system: cancer stem cells in AML and glioblastoma; conditions: Hira et al., 2020; cited from earlier work
[23] = system: CXCR4-mediated invasion and metastasis; conditions: Pan et al., 2018; cited from earlier work

Durvalumab
pCR rate ([1]; predicted non-responders): 15.38% | pCR I rate ([1]; predicted responders): 38.1% | pCR II rate ([1]; predicted responders): 62.5% | pCR rate ([2]; predicted non-responders (MK167+FOXC1 mRNA)): 0% | pCR rate ([2]; predicted responders (MK167+FOXC1 mRNA)): 75%

Cc1ccc(=O)n(-c2ccccc2)c1 [Pirfenidone]
fibrosis / TGFβ1 [3]: decrease fibrosis by decreasing TGFβ1 | immunosuppressive capacity of cancer-associated fibroblasts [4]: successful in reducing immunosuppressive capacity | therapeutic benefit of PD1/PDL1 immune checkpoint blockade [5]: augment the observed therapeutic benefit | fibroblast activation and tumor-fibroblast crosstalk in the TME [6]: capable of inhibiting fibroblast activation and tumor-fibroblast crosstalk

CO[C@H]1C[C@@H]2CC[C@@H](C)[C@@](O)(O2)C(=O)C(=O)N2CCCC[C@H]2C(=O)O[C@H]([C@H](C)C[C@@H]2CC[C@@H](OCCO)[C@H](OC)C2)CC(=O)[C@H](C)/C=C(\C)[C@@H](O)[C@@H](OC)C(=O)[C@H](C)C[C@H](C)/C=C/C=C/C=C/1C [Everolimus]
efficacy [7]: failed to show any demonstrable efficacy | progression free survival [8]: prolong progression free survival

CC(C)C[C@H](NC(=O)[C@H](Cc1ccccc1)NC(=O)c1cnccn1)B(O)O [Bortezomib]
emergence of resistant clones / cancer stem cell escape [9]: prevented the emergence of such resistant clones

CN1CC[C@@H](NC(=O)Nc2ccc(C#N)cc2)C[C@@H]1c1nc2ccccc2[nH]1 [Glasdegib]
targeting of leukemia stem cells [10]: successfully target leukemia stem cells | downstream effect on GLI2 [11]: GLI2 inhibition

C[C@@]12OC(=O)[C@]1([C@@H](O)[C@@H]1C=CCCC1)NC(=O)[C@@H]2CCCl [Marizomib]
development of lung and brain metastasis [12]: significantly reduced the development of lung and brain metastasis | tumor growth [12]: marked decline in tumor growth

CC(C)Cc1ccc([C@@H](C)C(=O)NS(C)(=O)=O)cc1 [Repartaxin]
therapeutic efficacy [13]: therapeutic efficacy | decrease in breast CSC count [14]: more than 20% | breast CSC activity [15]: successfully reduced breast CSC activity | therapeutic efficacy in combination ([15]; combined with Lapatinib): enhanced therapeutic efficacy when combined with Lapatinib | therapeutic efficacy [16]: therapeutic efficacy

CN(C)C/C=C/C(=O)Nc1ccc(C(=O)Nc2cccc(Nc3ncc(Cl)c(-c4c[nH]c5ccccc45)n3)c2)cc1 [THZ1]
sensitivity of cell proliferation ([17]; CDK7 inhibitor, Wang et al., 2015): selectively sensitive | apoptotic cell death ([17]; Tang et al., 2020): increasing apoptotic cell death | binding of SOX9 to FOXC1 and enhancer/SE-associated transcription factors [18]: significantly disrupted | effect of treatment on cells [19]: largely unaffected

CC/C(=C(\c1ccccc1)c1ccc(OCCN(C)C)cc1)c1ccccc1 [Tamoxifen]
risk of death (all-cause mortality) [20]: greater than 24%

c1cc(CN2CCCNCCNCCCNCC2)ccc1CN1CCCNCCNCCCNCC1 [Plerixafor]
incidence of bone metastasis [21]: successfully reduce the incidence of bone metastasis | mobilization of cancer stem cells from their niche [22]: mobilize cancer stem cells from their niche | CXCR4-mediated invasion and metastasis [23]: successful in reversing the CXCR4-mediated invasion and metastasis
